Reference: PMC12291913 (Antibiotics, 2025)
Values joined by “and” are separate entries in the source; they are usually repeats but may differ in a detail not shown here. Equal values may be shown once. Read-outs that look alike come from different tables or passages of the source.

Key:
[1] = system: M. avium clinical isolate Cl-A-2 (GyrA Asp95Tyr); format: cell-based, M. avium subsp. hominissuis
[2] = system: M. avium clinical isolate Koav 25 (WT); assay: microbe, parasite or virus in culture; format: cell-based; details: for FIC of INH or EMB: pair with WQ-3810; for MIC: Mycobacterium avium
[3] = system: M. avium clinical isolate Koav 19 (WT); assay: microbe, parasite or virus in culture; format: cell-based; details: for MIC: Mycobacterium avium
[4] = system: M. avium clinical isolate Koav 11 (GyrA Asp95Tyr); format: cell-based, M. avium subsp. hominissuis
[5] = system: M. avium clinical isolate Koav 20 (WT); assay: microbe, parasite or virus in culture; format: cell-based; details: Mycobacterium avium, drug alone, day 14, read-out: MIC
[6] = system: M. avium clinical isolate Koav 15 (WT); assay: microbe, parasite or virus in culture; format: cell-based; details: Mycobacterium avium, drug alone, day 14, read-out: MIC
[7] = system: M. avium clinical isolate Koav 3 (GyrA Asp95Gly); format: cell-based, M. avium subsp. hominissuis
[8] = system: M. avium clinical isolate Koav 13 (GyrA Asp95Gly); format: cell-based, M. avium subsp. hominissuis
[9] = system: M. avium clinical isolate Koav 13 (GyrA Asp95Gly); format: cell-based, M. avium subsp. hominissuis; remark: listed apart in the source
[10] = system: M. avium clinical isolate Koav 3 (GyrA Asp95Gly); format: cell-based, M. avium subsp. hominissuis; remark: listed apart in the source
[11] = system: M. avium clinical isolate Koav 15 (WT); assay: microbe, parasite or virus in culture; format: cell-based; details: checkerboard; for MIC: Mycobacterium avium
[12] = system: M. avium clinical isolate Koav 19 (WT); assay: microbe, parasite or virus in culture; format: cell-based; details: Mycobacterium avium, drug alone, day 14, read-out: MIC
[13] = system: M. avium clinical isolate Koav 1 (WT); assay: microbe, parasite or virus in culture; format: cell-based; details: checkerboard; for MIC of drug alone: single replicates; for MIC: Mycobacterium avium
[14] = system: M. avium clinical isolate Koav 25 (WT); assay: microbe, parasite or virus in culture; format: cell-based; details: Mycobacterium avium, drug alone, day 14, read-out: MIC
[15] = system: M. avium clinical isolate Koav 20 (WT); assay: microbe, parasite or virus in culture; format: cell-based; details: checkerboard; for MIC: Mycobacterium avium
[16] = system: M. avium clinical isolate Koav 1 (WT); assay: microbe, parasite or virus in culture; format: cell-based; details: Mycobacterium avium, drug alone, day 14, read-out: MIC
[17] = system: M. avium clinical isolate Koav 11 (GyrA Asp95Tyr); format: cell-based, M. avium subsp. hominissuis; remark: listed apart in the source
[18] = system: M. avium clinical isolate Cl-A-2 (GyrA Asp95Tyr); format: cell-based, M. avium subsp. hominissuis; remark: listed apart in the source
[19] = system: M. avium clinical isolate Koav 2 (WT); assay: microbe, parasite or virus in culture; format: cell-based; details: Mycobacterium avium, drug alone, day 14
[20] = system: M. avium clinical isolate Koav 2 (WT); assay: microbe, parasite or virus in culture; format: cell-based; details: checkerboard; for MIC: Mycobacterium avium
[21] = system: M. avium clinical isolate Koav 21 (WT); assay: microbe, parasite or virus in culture; format: cell-based; details: checkerboard; for MIC: Mycobacterium avium
[22] = system: M. avium clinical isolate Koav 21 (WT); assay: microbe, parasite or virus in culture; format: cell-based; details: Mycobacterium avium, drug alone, day 14, read-out: MIC
[23] = Koav 25 (K 25), WT, checkerboard
[24] = Koav 25 (K 25), WT, checkerboard, single replicates, read-out: MIC of drug alone
[25] = read-out: MIC of INH or EMB with 1 µg/ml MXF, Koav 25 (K 25), WT, checkerboard
[26] = read-out: MIC of INH or EMB with WQ-3810, Koav 25 (K 25), WT, checkerboard
[27] = Koav 19 (K 19), WT, checkerboard, single replicates
[28] = Koav 19 (K 19), WT, pair with MXF
[29] = Koav 19 (K 19), WT, checkerboard, single replicates, read-out: MIC of drug alone
[30] = read-out: MIC of INH or EMB with 1 µg/ml MXF, Koav 19 (K 19), WT, checkerboard
[31] = Koav 15 (K 15), WT, single replicates, read-out: MIC of drug alone
[32] = read-out: MIC of INH or EMB with 1 µg/ml MXF, Koav 15 (K 15), WT
[33] = read-out: MIC of INH or EMB with WQ-3810, Koav 15 (K 15), WT
[34] = read-out: MIC of INH or EMB with WQ-3810, Koav 1 (K 1), WT
[35] = Koav 2 (K 2), WT, single replicates, read-out: MIC of drug alone
[36] = read-out: MIC of INH or EMB with WQ-3810, Koav 2 (K 2), WT
[37] = Koav 21 (K 21), WT, single replicates, read-out: MIC of drug alone
[38] = read-out: MIC of INH or EMB with 1 µg/ml MXF, Koav 21 (K 21), WT

NNC(=O)c1ccncc1 [INH, isoniazid]
2 µg/mL and 1 µg/mL: MIC of INH or EMB with 1 µg/ml MXF [10] | MIC of INH or EMB with WQ-3810 [10]
4 to 8 µg/mL: MIC [18]
16 µg/mL and 32 µg/mL and 8 µg/mL: MIC of drug alone ([13]; Koav 1 (K 1), WT)
0.0625 µg/mL: FIC of INH or EMB [3, 28]
4 µg/mL and 8 µg/mL: MIC of drug alone [1] | MIC of drug alone [10]
0.5 µg/mL and 0.25 µg/mL: FIC of INH or EMB [1]
8 µg/mL: MIC [2, 24] | MIC [3, 29] | MIC [4] | MIC of INH or EMB with WQ-3810 ([11]; Koav 15 (K 15), WT) | MIC [11, 32] | MIC of INH or EMB with WQ-3810 ([13]; Koav 1 (K 1), WT) | MIC [14] | MIC [16] | MIC ([20]; read-out: MIC of INH or EMB with 1 µg/ml MXF, Koav 2 (K 2), WT)
8 to 16 µg/mL: MIC [12]
1 µg/mL: MIC of INH or EMB with 1 µg/ml MXF [2, 23] | MIC [3, 30] | MIC ([13]; read-out: MIC of INH or EMB with 1 µg/ml MXF, Koav 1 (K 1), WT) | MIC [21, 38]
2 µg/mL: MIC of INH or EMB with 1 µg/ml MXF [1] | MIC of INH or EMB with WQ-3810 [1] | MIC [2, 25] | MIC [2, 26] | MIC of INH or EMB with 1 µg/ml MXF ([13]; Koav 1 (K 1), WT) | MIC ([15]; read-out: MIC of INH or EMB with 1 µg/ml MXF, Koav 20 (K 20), WT) | MIC of INH or EMB with 1 µg/ml MXF [17] | MIC of INH or EMB with WQ-3810 [17]
0.25 µg/mL: FIC of INH or EMB ([2]; Koav 25 (K 25), WT)
16 µg/mL: MIC of drug alone ([2]; Koav 25 (K 25), WT, checkerboard, single replicates) | MIC of drug alone [3, 27] | MIC [5] | MIC of drug alone ([11]; Koav 15 (K 15), WT, single replicates) | MIC [20, 36] | MIC [21, 37] | MIC [22]
32 µg/mL and 16 µg/mL and 64 µg/mL: MIC of drug alone ([15]; Koav 20 (K 20), WT, single replicates)
32 µg/mL: MIC [6] | MIC [8] | MIC of drug alone [9] | MIC [11, 31]
4 µg/mL: MIC of INH or EMB with WQ-3810 [2, 23] | MIC [7] | MIC of INH or EMB with 1 µg/ml MXF ([11]; Koav 15 (K 15), WT) | MIC [11, 33] | MIC [13, 34] | MIC of INH or EMB with 1 µg/ml MXF ([15]; Koav 20 (K 20), WT)
8 µg/mL and 4 µg/mL: MIC of INH or EMB with 1 µg/ml MXF [9] | MIC of INH or EMB with WQ-3810 [9]
128 µg/mL: MIC [19] | MIC [20, 35]
8 µg/mL and 16 µg/mL: MIC of drug alone [17]

CC[C@@H](CO)NCCN[C@@H](CC)CO [EMB, ethambutol]
16 µg/mL: MIC of drug alone [1] | MIC [2, 25] | MIC [2, 26] | MIC of drug alone [3, 27] | MIC [4] | MIC [6] | MIC [7] | MIC of INH or EMB with 1 µg/ml MXF [9] | MIC [11, 31] | MIC [12] | MIC [18] | MIC [19] | MIC [20, 35] | MIC ([21]; read-out: MIC of INH or EMB with WQ-3810, Koav 21 (K 21), WT)
2 µg/mL: MIC [5] | MIC of INH or EMB with WQ-3810 ([13]; Koav 1 (K 1), WT) | MIC ([15]; Koav 20 (K 20), WT, single replicates, read-out: MIC of drug alone) | MIC [16] | MIC [21, 38]
8 µg/mL: MIC of INH or EMB with 1 µg/ml MXF [2, 23] | MIC of INH or EMB with WQ-3810 ([3]; Koav 19 (K 19), WT, checkerboard) | MIC [3, 29] | MIC [3, 30] | MIC of INH or EMB with WQ-3810 ([11]; Koav 15 (K 15), WT) | MIC [11, 32] | MIC [20, 36]
8 µg/mL and 16 µg/mL: MIC of INH or EMB with WQ-3810 [9]
4 µg/mL: MIC ([3]; read-out: MIC of INH or EMB with WQ-3810, Koav 19 (K 19), WT, checkerboard) | MIC of INH or EMB with 1 µg/ml MXF ([11]; Koav 15 (K 15), WT) | MIC [11, 33] | MIC [13, 34]
2 µg/mL and 4 µg/mL: MIC of INH or EMB with 1 µg/ml MXF [1]
1 µg/mL: MIC of INH or EMB with 1 µg/ml MXF ([21]; Koav 21 (K 21), WT)
4 µg/mL and 2 µg/mL: MIC of INH or EMB with 1 µg/ml MXF [10]
32 µg/mL: MIC [2, 24] | MIC [8] | MIC of drug alone [9] | MIC [14] | MIC of drug alone ([20]; Koav 2 (K 2), WT, single replicates) | MIC [21, 37] | MIC [22]
0.5 µg/mL: FIC of INH or EMB ([2]; Koav 25 (K 25), WT) | FIC of INH or EMB [3, 28] | FIC of INH or EMB ([3]; Koav 19 (K 19), WT, pair with WQ-3810)
8 µg/mL and 4 µg/mL and 2 µg/mL: MIC of drug alone ([13]; Koav 1 (K 1), WT)
